Tests used:
[1] = tested on: symptomatic Raynaud's Phenomenon attacks in subjects with Systemic Sclerosis; assay: Multicenter double-blind randomized placebo-controlled study of intravenous iloprost, efficacy by ePRO diary; format: in vivo, human; conditions: for Subgroup comparison of prior vs after, LS mean difference in change (SE) of treatment difference: randomized prior to vs after 3 Jun. 2019
Description: This was a multicenter, double-blind, randomized, placebo-controlled study to provide an initial evaluation of the effect of iloprost on the symptomatic relief of RP attacks in subjects with SSc. As a pilot study, it was not powered to provide a definitive estimate of the effect of iloprost. Importantly, this study tested the feasibility of collecting the study endpoints and logistics of study operations that included, among other things, an electronic patient-reported outcomes (ePRO) diary for the evaluation of subject response to the treatment, as well as the infusion workflow for this multiday treatment. Subjects were allowed to continue receiving stable standard of care therapies for the management of symptomatic RP (e.g., calcium channel blockers, angiotensin-converting enzyme inhibitors, statins, fluoxetine, and low-dose acetylsalicylic acid) or may have participated without the use of background standard of care therapies. The study consisted of an up to 30-day screening period during which subjects completed a daily ePRO diary to record information regarding all symptomatic RP attacks (e.g., severity of symptoms, duration, and hand function). […] The baseline ePRO diary completion period may have been extended beyond 10 days in order to accommodate the preferred Monday through Friday dosing schedule. The ePRO symptomatic RP attack data from this time period were used for the calculation of the baseline frequency of symptomatic RP attacks. […] Randomization was stratified based on the use of phosphodiesterase inhibitors at screening. Study drug administration began on Day 1, and subjects received study drug for 5 consecutive days (e.g., Monday through Friday) as an IV infusion over 6 hours each day via a peripheral line (NovaCath™ Integrated IV Catheter System) or a peripherally inserted central catheter using an infusion pump. […] On Day 1, study drug was initiated at a starting dose of 0.5 ng/kg/min, and dose increases occurred every 30 minutes (±5 minutes) in increments of 0.5 ng/kg/min up to 2.0 ng/kg/min or the individual tolerated dose. If dose-limiting adverse events (e.g., headache, flushing, jaw pain, myalgia, nausea, or vomiting) occurred that could not be tolerated by the subject, or if the subject experienced symptomatic hypotension, then the dose was reduced in a step-wise manner by 0.5 ng/kg/min every 30 minutes (±5 minutes) until a tolerated dose was determined or the infusion was stopped until the symptoms resolved at which point the study drug was reinitiated at a previously tolerated dose. If symptomatic hypotension or a dose-limiting adverse event occurred during administration of iloprost at the starting dose (i.e., 0.5 ng/kg/min), the infusion was reduced to 0.25 ng/kg/min. […] Blood pressure and heart rate were monitored 15 minutes (±5 minutes) prior to and after all dose changes. The maximum tolerated dose was maintained for the remaining 6-hour daily period. At the end of the 6-hour infusion period, the dose was stopped. Subjects were to be monitored for up to 1 hour after completion of study drug infusion (i.e., vital signs were obtained 15 minutes [+5 minutes] and 1 hour [+15 minutes] after completion of the infusion). […] Vital signs were measured prior to study drug administration and at 15 minutes (±5 minutes) prior to and after all dose changes during the infusion. Additionally, vital signs were monitored at 15 minutes (±5 minutes) and 1 hour (±15 minutes) after completion of the 6-hour infusion. Subjects were contacted via telephone on Day 8 to ensure they resumed completion of the daily ePRO diary; subjects completed the ePRO diary from Day 8 through Day 21. On Day 22, subjects returned to the clinic for post-treatment evaluations. A follow-up visit occurred 30 days after the last administration of study drug (Day 35). Symptomatic Raynaud's Phenomenon attacks: […] The attack was considered over when the color changed back to pre-attack color (normal) and the symptoms returned to the subject's pre-attack level. […]

[2] = Heat exposure study (sterilization cycles); format: physicochemical; conditions: pH about 8.0-8.1 versus about 7.0-7.2; light and heat exposure studies
Procedure: Approximately 200 mL of the prepared formulation was filtered through a Millipak 200, 0.22μ filter for light exposure study and heat exposure study (100 mL for each study).
Heat Exposure Study: Approximately 1.1 mL of formulation was placed each into 40 clean 2 cc vials and the vials were capped with 13 mm caps. One set of 20 vials were wrapped with autoclave tape, placed into an autoclave bag and labeled as B1. Another set of 20 vials were wrapped with autoclave tape, placed into an autoclave bag and labeled as B2. All vials were exposed through one sterilization cycle at 121° C. for approximately 30 minutes, then B1 vials were analyzed for pH and assayed by HPLC. The B2 vials were then exposed to a second sterilization cycle at ≥121° C. for ≥15 minutes. The B2 vials were analyzed for pH and assayed by HPLC for iloprost and impurities.

[3] = baseline to double-blind endpoint
[4] = subgroup randomized after 3 Jun. 2019, N = 9
[5] = subgroup randomized prior to 3 Jun. 2019, n = 8

CC#CCC(C)[C@H](O)/C=C/[C@@H]1[C@H]2C/C(=C/CCCC(=O)O)C[C@H]2C[C@H]1O (stereo partly drawn) [Iloprost, (5E)-5-[(3aS,4R,5R,6aS)-5-hydroxy-4-[(E,3S)-3-hydroxy-4-methyloct-1-en-6-ynyl]-3,3a,4,5,6,6a-hexahydro-1H-pentalen-2-ylidene]pentanoic acid]
Average overall severity of symptomatic RP attacks, LS mean difference in change vs placebo (SE) ([1]; 11-point NRS): −0.47 (0.604) | Average overall severity of symptomatic RP attacks, Double-blind endpoint, Mean (SD) ([1]; 11-point NRS, Days 8 to 21, N = 17): 3.39 (2.169) | Change from baseline in average overall severity of symptomatic RP attacks, LS mean (SE) ([1]; 11-point NRS, N = 17): −2.12 (0.439) | Average overall severity of symptomatic RP attacks, Baseline, Mean (SD) ([1]; 11-point NRS, before treatment, N = 17): 5.30 (1.818) | Change from baseline in weekly frequency of symptomatic RP attacks, LS mean (SE) ([1]; ANCOVA, baseline to double-blind endpoint, N = 17): −15.09 (2.961) | Weekly frequency of symptomatic RP attacks, LS mean difference in change vs placebo (SE) ([1]; ANCOVA, iloprost vs placebo, N = 17 per group): −0.77 (4.047) | Average weekly duration of symptomatic RP attacks, Double-blind endpoint, Mean (SD) ([1]; Days 8 to 21, N = 17): 345.82 (402.713) minutes | Weekly frequency of symptomatic RP attacks, Double-blind endpoint, Mean (SD) ([1]; Days 8 to 21 after IV infusion 6 h/day for 5 days, up to 2.0 ng/kg/min, N = 17): 23.57 (14.578) | Change from baseline in average weekly duration of symptomatic RP attacks, LS mean (SE) ([1]; N = 17): −267.49 (78.273) minutes | Difference in change in weekly frequency of symptomatic RP attacks compared to placebo, significance ([1]; all analytical measures): not statistically significant | Weekly frequency of symptomatic RP attacks, Baseline, Mean (SD) ([1]; baseline ePRO diary period (10 to 25 days) before treatment, N = 17): 37.05 (18.643) | Change in average Raynaud's Condition Score, difference compared to placebo [1, 3]: not statistically significant | Change in average worst symptoms (pain, numbness, tingling, discomfort) associated with symptomatic RP, difference compared to placebo [1, 3]: not statistically significant | Subject assessment of overall improvement using PGI-S and PGI-C, difference compared to placebo [1, 3]: not statistically significant | Average weekly duration of symptomatic RP attacks, Baseline, Mean (SD) ([1]; before treatment, N = 17): 586.97 (584.577) minutes | Average weekly duration of symptomatic RP attacks, LS mean difference in change vs placebo (SE) ([1]; iloprost vs placebo): −83.89 (107.728) minutes | Subgroup comparison of prior vs after, LS mean difference in change (SE) of treatment difference [1]: −6.91 (8.121) | Subgroup comparison of prior vs after, LS mean difference in change (SE) of treatment difference ([1]; listed as iloprost): -6.91 (8.121) | Weekly frequency of symptomatic RP attacks, LS mean difference in change vs placebo (SE) ([1]; subgroup randomized after 3 Jun. 2019): 2.04 (5.453) | Change from baseline in weekly frequency of symptomatic RP attacks, LS mean (SE) [1, 4]: −15.38 (4.082) | Weekly frequency of symptomatic RP attacks, Double-blind endpoint, Mean (SD) [1, 4]: 23.73 (17.337) | Weekly frequency of symptomatic RP attacks, Baseline, Mean (SD) ([1]; subgroup randomized after 3 Jun. 2019, N = 9, before treatment): 37.23 (19.269) | Weekly frequency of symptomatic RP attacks, LS mean difference in change vs placebo (SE) ([1]; subgroup randomized prior to 3 Jun. 2019): −4.87 (6.074) | Weekly frequency of symptomatic RP attacks, LS mean difference in change vs placebo (SE) ([1]; subgroup randomized prior to 3 Jun. 2019, listed as iloprost): -4.87 (6.074) | Change from baseline in weekly frequency of symptomatic RP attacks, LS mean (SE) [1, 5]: −14.83 (4.180) | Weekly frequency of symptomatic RP attacks, Double-blind endpoint, Mean (SD) [1, 5]: 23.39 (11.923) | Weekly frequency of symptomatic RP attacks, Baseline, Mean (SD) ([1]; subgroup randomized prior to 3 Jun. 2019, n = 8, before treatment): 36.85 (19.235) | stability of iloprost versus pH [2]: more stable at higher pH of about 8.0-8.1

From US20240299414A1, “SUBCUTANEOUS OR INTRAMUSCULAR INJECTION FORMULATIONS OF ILOPROST” (EICOS SCIENCES, INC., priority 2020, published 2024)
